Laboratory results from patent US10159640B2, “Prebiotic oral care compositions containing amino acids” (COLGATE-PALMOLIVE COMPANY, priority 2013, dated 2018).

Tests used:
Type in all cases: cell-based
[1] = tested on: Actinomyces naeslundii; experiment: Metabolic activity, Biolog phenotype microarray; conditions: control without dipeptide = 1
Experimental: (§1) The extent of metabolic activity of the tested bacteria in the presence of the above-mentioned dipeptides after 24 hours and 48 hours was investigated through a high throughput phenotype microarray system (PM) for microbial cells (Biolog Inc.). Each PM can contain up to 95 different biochemical compounds (e.g. di-peptides) that may act as substrates for bacteria as well as one negative control, not containing the substrates. Microarray plates were used in which the different wells of each plate were pre-loaded (by the manufacturer, Biolog Inc.) with different di-peptides to be tested. Each bacterial species was tested using a separate microarray plate. Thus, a single bacterial species was tested with a variety of dipeptides on each particular plate. The microarrays are based on redox technology, using cell respiration as a universal reporter. Active cell respiration results in the reduction of a tetrazolium dye and in the formation of a strong color—for example, when using the tetrazolium dye “Biolog Redox Dye Mix D”, the color changes from transparent/colourless to purple when the dye is reduced. The observation of this color change indicates which of the substrates improve the metabolic activity and health of the cells. Each bacterial species was collected from blood agar plates (incubated for 48 hours anaerobically at 37° C.) and transferred to an IF-0 Base inoculation fluid (Biolog Inc.), which is a nutritionally poor medium. The resulting cell suspension was adjusted to a transmittance of 42% (relative to the transmittance of the base inoculation fluid with no bacterial species present) at 492 nm using a BioRad SmartSpec 3000 Photometer (the adjustment being effected by adding either further inoculation fluid or further bacteria until the transmittance of 42% was achieved). A 1:5 dilution of this suspension was prepared by mixing 3 mL of the 42% transmittance cell suspension with 15 mL of an inoculation fluid (which inoculation fluid was formed by mixing 11.6 mL sterile water, 62.5 mL IF-0 base inoculation fluid and 0.9 mL of the tetrazolium dye “Biolog Redox Dye mix D”), resulting in a final cell density which was equal to 85% transmittance using a BioRad SmartSpec 3000 Photometer. 680 μL of a 2M sodium succinate/200 μM ferric citrate solution in distilled water was added to 68 mL of the 85% transmittance cell suspension and 100 μL of this mixture was added to each well (the various di-peptides being already present in powder form in the relevant wells of the plate as obtained from the supplier i.e. Biolog Inc.). All plates were incubated in an anaerobic atmosphere at 37° C. Color changes were measured spectrophotometrically at 492 nm (Thermo Scientific Multiskan Ascent) at 24 hrs and 48 hrs using the same plate at both time points. […] After 24 hrs and 48 hrs under continuous shaking in a Multiscan microplate reader, the optical density (OD) of the synthetic medium at 24 hours and 48 hours was measured (using the microplate reader) at a wavelength of 492 nm for each combination of bacterium/dipeptide, and for each of their respective controls (i.e. which contained the particular bacterium but no dipeptide). […] The experiment was carried out three times for each combination of bacterium with dipeptide, with each repeat being carried out on a different day (thus providing three biological replicas). The controls were also carried out three times, as above. The values shown are the average (mean) of the three single values obtained (as detailed above) for each combination of bacterium with dipeptide, at 24 hrs and at 48 hrs.

[2] = tested on: Actinomyces viscosus; experiment: Metabolic activity, Biolog phenotype microarray; conditions: control without dipeptide = 1
Experimental: as §1

[3] = tested on: Aggregatibacter actinomycetemcomitans; experiment: Metabolic activity, Biolog phenotype microarray; conditions: control without dipeptide = 1
Experimental: as §1

[4] = tested on: Capnocytophaga sputigena; experiment: Metabolic activity, Biolog phenotype microarray; conditions: control without dipeptide = 1
Experimental: as §1

[5] = tested on: Fusobacterium nucleatum; experiment: Metabolic activity, Biolog phenotype microarray; conditions: control without dipeptide = 1
Experimental: as §1

[6] = tested on: Porphyromonas gingivalis; experiment: Metabolic activity, Biolog phenotype microarray; conditions: control without dipeptide = 1
Experimental: as §1

[7] = tested on: Prevotella intermedia; experiment: Metabolic activity, Biolog phenotype microarray; conditions: control without dipeptide = 1
Experimental: as §1

[8] = tested on: Streptococcus gordonii; experiment: Metabolic activity, Biolog phenotype microarray; conditions: control without dipeptide = 1
Experimental: as §1

[9] = tested on: Streptococcus mitis; experiment: Metabolic activity, Biolog phenotype microarray; conditions: control without dipeptide = 1
Experimental: as §1

[10] = tested on: Streptococcus mutans; experiment: Metabolic activity, Biolog phenotype microarray; conditions: control without dipeptide = 1
Experimental: as §1

[11] = tested on: Streptococcus salivarius; experiment: Metabolic activity, Biolog phenotype microarray; conditions: control without dipeptide = 1
Experimental: as §1

[12] = tested on: Streptococcus sanguinis; experiment: Metabolic activity, Biolog phenotype microarray; conditions: control without dipeptide = 1
Experimental: as §1

[13] = tested on: Streptococcus sobrinus; experiment: Metabolic activity, Biolog phenotype microarray; conditions: control without dipeptide = 1
Experimental: as §1

[14] = tested on: Tannerella forsythia; experiment: Metabolic activity, Biolog phenotype microarray; conditions: control without dipeptide = 1
Experimental: as §1

[15] = tested on: Veillonella parvula; experiment: Metabolic activity, Biolog phenotype microarray; conditions: control without dipeptide = 1
Experimental: as §1

[16] = tested on: beneficial oral bacteria and pathogenic oral bacteria; experiment: Metabolic activity, whole panel: prebiotic effect; conditions: threshold value of 2
Experimental: Substrates that were able to increase the metabolic activity of at least one of the above beneficial bacteria while not or only minimally increasing the growth of the pathogenic bacteria are considered to be prebiotic substrates. The extent of metabolic activity of the tested bacteria in the presence of the above-mentioned dipeptides after 24 hours and 48 hours was investigated through a high throughput phenotype microarray system (PM) for microbial cells (Biolog Inc.). Each PM can contain up to 95 different biochemical compounds (e.g. di-peptides) that may act as substrates for bacteria as well as one negative control, not containing the substrates. Microarray plates were used in which the different wells of each plate were pre-loaded (by the manufacturer, Biolog Inc.) with different di-peptides to be tested. Each bacterial species was tested using a separate microarray plate. Thus, a single bacterial species was tested with a variety of dipeptides on each particular plate. The microarrays are based on redox technology, using cell respiration as a universal reporter. Active cell respiration results in the reduction of a tetrazolium dye and in the formation of a strong color—for example, when using the tetrazolium dye “Biolog Redox Dye Mix D”, the color changes from transparent/colourless to purple when the dye is reduced. The observation of this color change indicates which of the substrates improve the metabolic activity and health of the cells. Each bacterial species was collected from blood agar plates (incubated for 48 hours anaerobically at 37° C.) and transferred to an IF-0 Base inoculation fluid (Biolog Inc.), which is a nutritionally poor medium. The resulting cell suspension was adjusted to a transmittance of 42% (relative to the transmittance of the base inoculation fluid with no bacterial species present) at 492 nm using a BioRad SmartSpec 3000 Photometer (the adjustment being effected by adding either further inoculation fluid or further bacteria until the transmittance of 42% was achieved). A 1:5 dilution of this suspension was prepared by mixing 3 mL of the 42% transmittance cell suspension with 15 mL of an inoculation fluid (which inoculation fluid was formed by mixing 11.6 mL sterile water, 62.5 mL IF-0 base inoculation fluid and 0.9 mL of the tetrazolium dye “Biolog Redox Dye mix D”), resulting in a final cell density which was equal to 85% transmittance using a BioRad SmartSpec 3000 Photometer. 680 μL of a 2M sodium succinate/200 μM ferric citrate solution in distilled water was added to 68 mL of the 85% transmittance cell suspension and 100 μL of this mixture was added to each well (the various di-peptides being already present in powder form in the relevant wells of the plate as obtained from the supplier i.e. Biolog Inc.). All plates were incubated in an anaerobic atmosphere at 37° C. Color changes were measured spectrophotometrically at 492 nm (Thermo Scientific Multiskan Ascent) at 24 hrs and 48 hrs using the same plate at both time points. […] After 24 hrs and 48 hrs under continuous shaking in a Multiscan microplate reader, the optical density (OD) of the synthetic medium at 24 hours and 48 hours was measured (using the microplate reader) at a wavelength of 492 nm for each combination of bacterium/dipeptide, and for each of their respective controls (i.e. which contained the particular bacterium but no dipeptide). […] The experiment was carried out three times for each combination of bacterium with dipeptide, with each repeat being carried out on a different day (thus providing three biological replicas). The controls were also carried out three times, as above. The values shown are the average (mean) of the three single values obtained (as detailed above) for each combination of bacterium with dipeptide, at 24 hrs and at 48 hrs. […] This value was selected in order to exclude low-stimulating metabolites and avoid false positive results.

Substance: Ser-Asn
- metabolic activity: OD 492 nm divided by OD of control ([1]; 24 hrs): 1.3199
- metabolic activity: OD 492 nm divided by OD of control ([1]; 48 hrs): 1.6167
- metabolic activity: OD 492 nm divided by OD of control ([2]; 24 hrs): 1.7174
- metabolic activity: OD 492 nm divided by OD of control ([2]; 48 hrs): 2.0421
- metabolic activity: OD 492 nm divided by OD of control ([3]; 24 hrs): 1.3093
- metabolic activity: OD 492 nm divided by OD of control ([3]; 48 hrs): 1.7285
- metabolic activity: OD 492 nm divided by OD of control ([4]; 24 hrs): 2.2418
- metabolic activity: OD 492 nm divided by OD of control ([4]; 48 hrs): 1.5699
- metabolic activity: OD 492 nm divided by OD of control ([5]; 24 hrs): 1.2165
- metabolic activity: OD 492 nm divided by OD of control ([5]; 48 hrs): 1.4289
- metabolic activity: OD 492 nm divided by OD of control ([6]; 24 hrs): 1.0079
- metabolic activity: OD 492 nm divided by OD of control ([6]; 48 hrs): 1.2165
- metabolic activity: OD 492 nm divided by OD of control ([7]; 24 hrs): 1.1002
- metabolic activity: OD 492 nm divided by OD of control ([7]; 48 hrs): 1.1329
- metabolic activity: OD 492 nm divided by OD of control ([8]; 24 hrs): 0.8814
- metabolic activity: OD 492 nm divided by OD of control ([8]; 48 hrs): 1.3337
- metabolic activity: OD 492 nm divided by OD of control ([9]; 24 hrs): 1.0807
- metabolic activity: OD 492 nm divided by OD of control ([9]; 48 hrs): 1.5785
- metabolic activity: OD 492 nm divided by OD of control ([10]; 24 hrs): 1.2715
- metabolic activity: OD 492 nm divided by OD of control ([10]; 48 hrs): 1.7588
- metabolic activity: OD 492 nm divided by OD of control ([11]; 24 hrs): 1.1917
- metabolic activity: OD 492 nm divided by OD of control ([11]; 48 hrs): 1.5886
- metabolic activity: OD 492 nm divided by OD of control ([12]; 24 hrs): 1.1935
- metabolic activity: OD 492 nm divided by OD of control ([12]; 48 hrs): 1.5794
- metabolic activity: OD 492 nm divided by OD of control ([13]; 24 hrs): 1.2753
- metabolic activity: OD 492 nm divided by OD of control ([13]; 48 hrs): 1.7028
- metabolic activity: OD 492 nm divided by OD of control ([14]; 24 hrs): 1.2030
- metabolic activity: OD 492 nm divided by OD of control ([14]; 48 hrs): 1.4354
- metabolic activity: OD 492 nm divided by OD of control ([15]; 24 hrs): 1.1101
- metabolic activity: OD 492 nm divided by OD of control ([15]; 48 hrs): 1.1143
- prebiotic effects (metabolic activity) ([16]; 24 hrs): exhibited prebiotic effects
- prebiotic effects (metabolic activity) ([16]; 48 hrs): exhibited prebiotic effects

Substance: Glu-Trp
- metabolic activity: OD 492 nm divided by OD of control ([1]; 24 hrs): 1.1008
- metabolic activity: OD 492 nm divided by OD of control ([1]; 48 hrs): 1.2040
- metabolic activity: OD 492 nm divided by OD of control ([2]; 24 hrs): 1.5845
- metabolic activity: OD 492 nm divided by OD of control ([2]; 48 hrs): 2.1016
- metabolic activity: OD 492 nm divided by OD of control ([3]; 24 hrs): 0.9494
- metabolic activity: OD 492 nm divided by OD of control ([3]; 48 hrs): 0.8665
- metabolic activity: OD 492 nm divided by OD of control ([4]; 24 hrs): 1.7818
- metabolic activity: OD 492 nm divided by OD of control ([4]; 48 hrs): 1.4150
- metabolic activity: OD 492 nm divided by OD of control ([5]; 24 hrs): 0.9011
- metabolic activity: OD 492 nm divided by OD of control ([5]; 48 hrs): 0.8364
- metabolic activity: OD 492 nm divided by OD of control ([6]; 24 hrs): 0.9385
- metabolic activity: OD 492 nm divided by OD of control ([6]; 48 hrs): 0.8770
- metabolic activity: OD 492 nm divided by OD of control ([7]; 24 hrs): 1.0170
- metabolic activity: OD 492 nm divided by OD of control ([7]; 48 hrs): 0.9148
- metabolic activity: OD 492 nm divided by OD of control ([8]; 24 hrs): 1.1537
- metabolic activity: OD 492 nm divided by OD of control ([8]; 48 hrs): 1.4320
- metabolic activity: OD 492 nm divided by OD of control ([9]; 24 hrs): 0.9457
- metabolic activity: OD 492 nm divided by OD of control ([9]; 48 hrs): 0.9396
- metabolic activity: OD 492 nm divided by OD of control ([10]; 24 hrs): 0.9492
- metabolic activity: OD 492 nm divided by OD of control ([10]; 48 hrs): 1.0170
- metabolic activity: OD 492 nm divided by OD of control ([11]; 24 hrs): 1.0068
- metabolic activity: OD 492 nm divided by OD of control ([11]; 48 hrs): 0.9525
- metabolic activity: OD 492 nm divided by OD of control ([12]; 24 hrs): 0.9983
- metabolic activity: OD 492 nm divided by OD of control ([12]; 48 hrs): 1.0208
- metabolic activity: OD 492 nm divided by OD of control ([13]; 24 hrs): 1.0018
- metabolic activity: OD 492 nm divided by OD of control ([13]; 48 hrs): 0.9874
- metabolic activity: OD 492 nm divided by OD of control ([14]; 24 hrs): 0.9320
- metabolic activity: OD 492 nm divided by OD of control ([14]; 48 hrs): 0.9303
- metabolic activity: OD 492 nm divided by OD of control ([15]; 24 hrs): 0.8378
- metabolic activity: OD 492 nm divided by OD of control ([15]; 48 hrs): 0.7873
- prebiotic effects (metabolic activity) ([16]; 48 hrs): exhibited prebiotic effects
